Data taken from patent US20230072683A1, “PYRIDO-PYRIMIDIN DERIVATIVES AND PHARMACEUTICAL COMPOSITION, FOR USE IN PREVENTING OR TREATING PI3 KINASE RELATED DISEASES, COMPRISING SAME AS ACTIVE INGREDIENT” (BORYUNG PHARMACEUTICAL CO., LTD, priority 2019, published 2023).
Like-named read-outs stand apart in the source and are kept apart here.

Tests used:
[1] = molecular target: PI3K-δ (PI3K(p1108/p857) (h)) (Homo sapiens, UniProt O00329); assay: Evaluation of inhibitory activity against PI3K-δ (HTRF kinase assay); assay type: biochemical; conditions: for inhibition at 0.01 µM: compound concentration 0.01 μM, read-out: EXP_VALUE(% Inhibition) PI3K-δ 0.01 μM; for inhibition at 0.1 µM: read-out: EXP_VALUE(% Inhibition) PI3K-δ 0.1 μM
Chain of PI3K-δ (PI3K(p1108/p857) (h)) (O00329 whole entry, the tested form may be a part): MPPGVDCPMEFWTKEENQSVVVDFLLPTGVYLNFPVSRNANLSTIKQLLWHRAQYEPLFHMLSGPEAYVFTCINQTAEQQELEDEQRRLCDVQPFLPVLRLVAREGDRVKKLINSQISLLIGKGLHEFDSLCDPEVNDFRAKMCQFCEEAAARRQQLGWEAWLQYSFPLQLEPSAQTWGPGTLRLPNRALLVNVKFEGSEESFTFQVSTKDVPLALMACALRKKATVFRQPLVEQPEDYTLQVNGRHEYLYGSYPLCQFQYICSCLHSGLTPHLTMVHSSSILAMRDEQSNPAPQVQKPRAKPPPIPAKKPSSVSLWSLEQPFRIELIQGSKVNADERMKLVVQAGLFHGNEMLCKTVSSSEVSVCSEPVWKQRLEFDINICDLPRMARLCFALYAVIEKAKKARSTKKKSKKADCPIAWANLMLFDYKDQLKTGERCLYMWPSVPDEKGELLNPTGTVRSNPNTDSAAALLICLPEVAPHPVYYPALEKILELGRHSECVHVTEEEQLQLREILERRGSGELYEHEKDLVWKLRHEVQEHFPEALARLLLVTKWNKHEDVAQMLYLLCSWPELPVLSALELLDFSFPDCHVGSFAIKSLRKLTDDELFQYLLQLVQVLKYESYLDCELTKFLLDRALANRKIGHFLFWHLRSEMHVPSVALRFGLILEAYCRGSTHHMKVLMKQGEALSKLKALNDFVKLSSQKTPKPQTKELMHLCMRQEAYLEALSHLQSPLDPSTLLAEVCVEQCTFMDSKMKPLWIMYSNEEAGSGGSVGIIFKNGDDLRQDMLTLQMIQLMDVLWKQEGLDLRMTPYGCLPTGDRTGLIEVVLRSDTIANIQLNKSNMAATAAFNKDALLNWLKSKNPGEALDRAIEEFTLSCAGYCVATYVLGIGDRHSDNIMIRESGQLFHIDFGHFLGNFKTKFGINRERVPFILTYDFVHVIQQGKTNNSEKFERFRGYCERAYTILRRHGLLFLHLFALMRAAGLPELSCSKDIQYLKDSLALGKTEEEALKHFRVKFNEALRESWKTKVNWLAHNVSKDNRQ
Chain of PI3K-δ (PI3K(p1108/p857) (h)) (P27986 whole entry partner, the tested form may be a part): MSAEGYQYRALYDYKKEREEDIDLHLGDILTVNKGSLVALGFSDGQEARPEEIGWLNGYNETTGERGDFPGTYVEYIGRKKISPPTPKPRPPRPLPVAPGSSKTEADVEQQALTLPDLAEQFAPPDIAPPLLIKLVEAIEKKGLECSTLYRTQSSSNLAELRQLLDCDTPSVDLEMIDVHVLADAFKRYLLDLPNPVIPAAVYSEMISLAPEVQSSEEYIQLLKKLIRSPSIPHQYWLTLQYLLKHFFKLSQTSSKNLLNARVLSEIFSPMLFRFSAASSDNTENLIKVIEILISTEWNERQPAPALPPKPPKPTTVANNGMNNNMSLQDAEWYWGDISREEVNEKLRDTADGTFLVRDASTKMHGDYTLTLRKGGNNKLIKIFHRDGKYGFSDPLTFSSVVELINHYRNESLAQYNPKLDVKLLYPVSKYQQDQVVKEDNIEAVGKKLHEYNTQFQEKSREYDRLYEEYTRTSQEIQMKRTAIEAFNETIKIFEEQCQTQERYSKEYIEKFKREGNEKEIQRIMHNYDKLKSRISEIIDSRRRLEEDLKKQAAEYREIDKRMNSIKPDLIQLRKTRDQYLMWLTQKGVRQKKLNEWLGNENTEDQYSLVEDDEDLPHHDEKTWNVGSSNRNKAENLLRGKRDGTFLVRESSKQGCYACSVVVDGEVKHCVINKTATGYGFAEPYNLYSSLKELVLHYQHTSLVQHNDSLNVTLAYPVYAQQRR
Procedure, shortened: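 HTRF read-out (665/620 nm ratio ×10000) used Eu-labelled anti-GST, GST-tagged GRP1 PH domain and streptavidin-allophycocyanin after EDTA/PIP3 stop.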

[2] = molecular target: DNA-PK(h) (Homo sapiens, UniProt P78527); assay: Evaluation of inhibitory activity against DNA-PK (HTRF kinase assay, GST-cMyc-p53 substrate); assay type: biochemical; conditions: for inhibition at 0.01 µM: compound concentration 0.01 μM, read-out: EXP_VALUE(% Inhibition) DNA-PK(h) 0.01 μM; for inhibition at 0.1 µM: read-out: EXP_VALUE(% Inhibition) DNA-PK(h) 0.1 μM
Procedure, shortened: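 p53 Ser15 phosphorylation by human DNA-PK was measured by time-resolved FRET ratio (665/620 nm ×10000) using Eu-labelled anti-phospho-Ser15 and d2 anti-GST antibodies. Substrate GST-cMyc-p53 at 50 μM; Mg/ATP-initiated, 30 min at room temperature, EDTA stop.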

Structure (SMILES) | inhibition at 0.01 µM [1] [%] | inhibition at 0.01 µM [2] [%] | inhibition at 0.1 µM ([1]; compound concentration 0.1 μM) [%] | inhibition at 0.1 µM ([2]; compound concentration 0.1 μM) [%] | inhibition at 0.1 µM ([1]; compound at 0.1 μM) [%] | inhibition at 0.1 µM ([2]; compound at 0.1 μM) [%]
C[C@H](Nc1ncnc2[nH]ccc(=O)c12)c1c(Cl)c2cccc(-c3cnc(N4CCN(C)CC4)nc3)c2c(=O)n1-c1ccccc1 [Example 216, (S)-4-((1-(4-chloro-8-(2-(4-methylpiperazin-1-yl)pyrimidin-5-yl)-1-oxo-2-phenyl-1,2-dihydroisoquinolin-3-yl)ethyl)amino)pyrido[2,3-d]pyrimidin-5(8H)-one] | 96 | 75 |  |  |  | 
C[C@H](Nc1ncnc2[nH]ccc(=O)c12)c1cc2cccc(-c3ccc(C(N)=O)cc3)c2c(=O)n1-c1ccccc1 [Example 81, (S)-4-(1-oxo-3-(1-((5-oxo-5,8-dihydropyrido[2,3-d]pyrimidin-4-yl)amino)ethyl)-2-phenyl-1,2-dihydroisoquinolin-8-yl)benzamide] | 97 | 22 | 105 | 76 |  | 
CCC[S@@](=N)(=O)c1cccc2c(Cl)c([C@H](C)Nc3ncnc4[nH]ccc(=O)c34)n(-c3ccccc3)c(=O)c12 [Example 408, 4-(((S)-1-(4-chloro-1-oxo-2-phenyl-8-((R)-propylsulfonimidoyl)-1,2-dihydroisoquinolin-3-yl)ethyl)amino)pyrido[2,3-d]pyrimidin-5(8H)-one] |  |  |  |  | 71 | 28
COc1ncc(-c2cccc3c(Cl)c([C@H](C)Nc4ncnc5[nH]ccc(=O)c45)n(-c4ccccc4)c(=O)c23)cc1[N+](=O)[O-] [Example 61, (S)-4-((1-(4-chloro-8-(6-methoxy-5-nitropyridin-3-yl)-1-oxo-2-phenyl-1,2-dihydroisoquinolin-3-yl)ethyl)amino)pyrido[2,3-d]pyrimidin-5(8H)-one] | 89 | 67 |  |  |  | 
C[C@H](Nc1ncnc2[nH]ccc(=O)c12)c1c(Cl)c2cccc(-c3ccc4nonc4c3)c2c(=O)n1-c1ccccc1 [Example 240, (S)-4-((1-(8-(benzo[c][1,2,5]oxadiazol-5-yl)-4-chloro-1-oxo-2-phenyl-1,2-dihydroisoquinolin-3-yl)ethyl)amino)pyrido[2,3-d]pyrimidin-5(8H)-one] | 61 | 22 |  |  |  | 
Cc1cc(-c2cccc3c(Cl)c([C@H](C)Nc4ncnc5[nH]ccc(=O)c45)n(-c4ccccc4)c(=O)c23)n[nH]1 [Example 234, (S)-4-((1-(4-chloro-8-(5-methyl-1H-pyrazol-3-yl)-1-oxo-2-phenyl-1,2-dihydroisoquinolin-3-yl)ethyl)amino)pyrido[2,3-d]pyrimidin-5(8H)-one] | 85 | 50 |  |  |  | 
C[C@H](Nc1ncnc2[nH]ccc(=O)c12)c1c(Cl)c2cccc(OCC(F)(F)F)c2c(=O)n1-c1ccccc1 [Example 364, (S)-4-((1-(4-chloro-1-oxo-2-phenyl-8-(2,2,2-trifluoroethoxy)-1,2-dihydroisoquinolin-3-yl)ethyl)amino)pyrido[2,3-d]pyrimidin-5(8H)-one] | 29 | 21 | 76 | 82 |  | 
C[C@H](Nc1ncnc2[nH]ccc(=O)c12)c1c(Cl)c2cccc(-c3cnc(S(C)(=N)=O)nc3)c2c(=O)n1-c1ccccc1 (stereo partly drawn) [Example 407, 4-(((1S)-1-(4-chloro-8-(2-(S-methylsulfonimidoyl)pyrimidin-5-yl)-1-oxo-2-phenyl-1,2-dihydroisoquinolin-3-yl)ethyl)amino)pyrido[2,3-d]pyrimidin-5(8H)-one] |  |  |  |  | 67 | 70
C[C@H](Nc1ncnc2[nH]ccc(=O)c12)c1c(Cl)c2cccc(-c3cc(F)c4c(c3)NCCO4)c2c(=O)n1-c1ccccc1 [Example 192, (S)-4-((1-(4-chloro-8-(8-fluoro-3,4-dihydro-2H-benzo[b] [1,4]oxazin-6-yl)-1-oxo-2-phenyl-1,2-dihydroisoquinolin-3-yl)ethyl)amino)pyrido[2,3-d]pyrimidin-5(8H)-one] | 72 | 25 |  |  |  | 
C[C@H](Nc1ncnc2[nH]ccc(=O)c12)c1cc2cccc(-c3ccc(N(C)C)nc3)c2c(=O)n1-c1ccccc1 [Example 264, (S)-4-((1-(8-(6-(dimethylamino)pyridin-3-yl)-1-oxo-2-phenyl-1,2-dihydroisoquinolin-3-yl)ethyl)amino)pyrido[2,3-d]pyrimidin-5(8H)-one] | 73 | 7 | 82 | 41 |  | 
COc1ncc(-c2cccc3c(Cl)c([C@H](C)Nc4ncnc5[nH]ccc(=O)c45)n(-c4ccccc4)c(=O)c23)cc1NS(C)(=O)=O [Example 225, (S)—N-(5-(4-chloro-1-oxo-3-(1-((5-oxo-5,8-dihydropyrido[2,3-d]pyrimidin-4-yl)amino)ethyl)-2-phenyl-1,2-dihydroisoquinolin-8-yl)-2-methoxypyridin-3-yl)methanesulfonamide] | 74 | 76 |  |  |  | 
C[C@H](Nc1ncnc2[nH]ccc(=O)c12)c1c(Cl)c2cccc(-c3ncc(C(F)(F)F)cn3)c2c(=O)n1-c1ccccc1 [Example 52, (S)-4-((1-(4-chloro-1-oxo-2-phenyl-8-(5-(trifluoromethyl)pyrimidin-2-yl)-1,2-dihydroisoquinolin-3-yl)ethyl)amino)pyrido[2,3-d]pyrimidin-5(8H)-one] | 13 | -2 |  |  |  | 
C[C@H](Nc1ncnc2[nH]ccc(=O)c12)c1c(Cl)c2cccc(NCCc3ccc(Cl)cc3)c2c(=O)n1-c1ccccc1 [Example 335, (S)-4-((1-(4-chloro-8-((4-chlorophenethyl)amino)-1-oxo-2-phenyl-1,2-dihydroisoquinolin-3-yl)ethyl)amino)pyrido[2,3-d]pyrimidin-5(8H)-one] | 31 | 13 | 95 | 52 |  | 
Cc1nc(N)ncc1-c1cccc2c(Cl)c([C@H](C)Nc3ncnc4[nH]ccc(=O)c34)n(-c3ccccc3)c(=O)c12 [Example 212, (S)-4-((1-(8-(2-amino-4-methylpyrimidin-5-yl)-4-chloro-1-oxo-2-phenyl-1,2-dihydroisoquinolin-3-yl)ethyl)amino)pyrido[2,3-d]pyrimidin-5(8H)-one] | 94 | 57 |  |  |  | 
C[C@H](Nc1ncnc2[nH]ccc(=O)c12)c1c(Cl)c2cccc(-c3cnc(F)nc3)c2c(=O)n1-c1ccccc1 [Example 382, (S)-4-((1-(4-chloro-8-(2-fluoropyrimidin-5-yl)-1-oxo-2-phenyl-1,2-dihydroisoquinolin-3-yl)ethyl)amino)pyrido[2,3-d]pyrimidin-5(8H)-one] |  |  |  |  | 16 | 5
C[C@H](Nc1ncnc2[nH]ccc(=O)c12)c1c(Cl)c2cccc(-c3cccc4c3cnn4C)c2c(=O)n1-c1ccccc1 [Example 237, (S)-4-((1-(4-chloro-8-(1-methyl-1H-indazol-4-yl)-1-oxo-2-phenyl-1,2-dihydroisoquinolin-3-yl)ethyl)amino)pyrido[2,3-d]pyrimidin-5(8H)-one] | 85 | 29 |  |  |  | 
COc1cnc(-c2cccc3c(Cl)c([C@H](C)Nc4ncnc5[nH]ccc(=O)c45)n(-c4ccccc4)c(=O)c23)cn1 [Example 221, (S)-4-((1-(4-chloro-8-(5-methoxypyrazin-2-yl)-1-oxo-2-phenyl-1,2-dihydroisoquinolin-3-yl)ethyl)amino)pyrido[2,3-d]pyrimidin-5(8H)-one] | 67 | 27 |  |  |  | 
C[C@H](Nc1ncnc2[nH]ccc(=O)c12)c1c(Cl)c2cccc(C(C)(C)O)c2c(=O)n1-c1ccccc1 [Example 360, (S)-4-((1-(4-chloro-8-(2-hydroxypropan-2-yl)-1-oxo-2-phenyl-1,2-dihydroisoquinolin-3-yl)ethyl)amino)pyrido[2,3-d]pyrimidin-5(8H)-one] | 6 | -4 |  |  |  | 
C[C@H](Nc1ncnc2[nH]ccc(=O)c12)c1c(Cl)c2cccc(-c3cnc4nncn4c3)c2c(=O)n1-c1ccccc1 [Example 40, (S)-4-((1-(8-([1,2,4]triazolo[4,3-a]pyrimidin-6-yl)-4-chloro-1-oxo-2-phenyl-1,2-dihydroisoquinolin-3-yl)ethyl)amino)pyrido[2,3-d]pyrimidin-5(8H)-one] | 67 | 61 |  |  |  | 
C[C@H](Nc1ncnc2[nH]ccc(=O)c12)c1c(Cl)c2cccc(-c3cnc(NC4CC4)nc3)c2c(=O)n1-c1ccccc1 [Example 203, (S)-4-((1-(4-chloro-8-(2-(cyclopropylamino)pyrimidin-5-yl)-1-oxo-2-phenyl-1,2-dihydroisoquinolin-3-yl)ethyl)amino)pyrido[2,3-d]pyrimidin-5(8H)-one] | 106 | 79 |  |  |  | 
C[C@H](Nc1ncnc2[nH]ccc(=O)c12)c1c(Cl)c2cccc(-c3ccc(F)cc3)c2c(=O)n1-c1ccccc1 [Example 63, (S)-4-((1-(4-chloro-8-(4-fluorophenyl)-1-oxo-2-phenyl-1,2-dihydroisoquinolin-3-yl)ethyl)amino)pyrido[2,3-d]pyrimidin-5(8H)-one] | 95 | 44 | 96 | 84 |  | 
